Results taken from PubChem BioAssay (NCI).
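GI50: concentration for 50% inhibition of growth. At the TGI there is no net growth.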 Where a SMILES comes first, the peptide text is derived from it. [ ]: non-standard residue; d: D form. The star is where a group is joined. Dolaproine = CO[C@@H]([C@@H]1CCCN1)[C@@H](C)C(=O)O; Dil = CC[C@H](C)[C@H](NC)[C@@H](CC(=O)O)OC; X2 = C[C@@H](N*)[C@@H](O)c1ccccc1; NMeV = CN[C@H](C(=O)O)C(C)C

Assays:
Experiment in all cases: NCI anticancer screen, dose series, 384-well format
[1] = test system: LOX IMVI melanoma
[2] = test system: HCT-15 colon
[3] = test system: SF-295 CNS
[4] = test system: MDA-MB-435 melanoma
[5] = test system: U251 glioblastoma
[6] = test system: HOP-92 NSCLC
[7] = test system: BT-549 breast
[8] = test system: HCT-116 colon
[9] = test system: CCRF-CEM leukemia
[10] = test system: NCI-H23 lung
[11] = test system: A549 NSCLC
[12] = test system: OVCAR-5 ovarian
[13] = test system: 786-0 renal
[14] = test system: OVCAR-8 ovarian
[15] = test system: RXF 393 renal
[16] = test system: M14 melanoma
[17] = test system: SNB-19 CNS
[18] = test system: SK-MEL-5 melanoma
[19] = test system: IGROV1 ovarian
[20] = test system: KM12 colon
[21] = test system: UACC-257 melanoma
[22] = test system: MOLT-4 leukemia
[23] = test system: OVCAR-3 ovarian
[24] = test system: RPMI-8226 leukemia
[25] = test system: MCF7 breast
[26] = test system: A498 renal
[27] = test system: OVCAR-4 ovarian
[28] = test system: CAKI-1 renal
[29] = test system: MALME-3M melanoma
[30] = test system: ACHN renal
[31] = test system: SN12C renal
[32] = test system: NCI-H522 lung
[33] = test system: NCI-H226 lung
[34] = test system: COLO 205 colon
[35] = test system: UO-31 renal
[36] = test system: MDA-MB-468 breast
[37] = test system: NCI-H460 NSCLC
[38] = test system: SK-MEL-2 melanoma
[39] = test system: HCC-2998 colon
[40] = test system: TK-10 renal
[41] = test system: SW-620 colon
[42] = test system: MDA-MB-231 breast
[43] = test system: HL-60(TB) leukemia
[44] = test system: HT29 colon
[45] = test system: HOP-62 NSCLC
[46] = test system: SR leukemia
[47] = test system: NCI/ADR-RES ovarian
[48] = test system: T-47D breast
[49] = test system: NCI-H322M lung
[50] = test system: DU-145 prostate
[51] = test system: SF-268 CNS
[52] = test system: K-562 leukemia
[53] = test system: SK-OV-3 ovarian
[54] = test system: SF-539 CNS
[55] = test system: UACC-62 melanoma

CC[C@H](C)[C@@H]([C@@H](CC(=O)N1CCC[C@H]1[C@H](OC)[C@@H](C)C(=O)N[C@H](C)[C@@H](O)c1ccccc1)OC)N(C)C(=O)[C@@H](NC(=O)[C@@H](NC)C(C)C)C(C)C (H-[NMeV]V[Dil][Dolaproine]-X2)
GI50 [1]: < 10 nM | TGI [1]: < 10 nM | GI50 [2]: < 10 nM | TGI [2]: 63.2 nM | GI50 [3]: < 10 nM | TGI [3]: < 10 nM | GI50 [4]: < 10 nM | TGI [4]: < 10 nM | GI50 [5]: < 10 nM | TGI [5]: < 10 nM | GI50 [6]: < 10 nM | TGI [6]: < 10 nM | GI50 [7]: < 10 nM | TGI [7]: < 10 nM | GI50 [8]: < 10 nM | TGI [8]: < 10 nM | GI50 [9]: < 10 nM | TGI [9]: < 10 nM | GI50 [10]: < 10 nM | TGI [10]: < 10 nM | GI50 [11]: < 10 nM | TGI [11]: < 10 nM | GI50 [12]: < 10 nM | TGI [12]: > 100000 nM | GI50 [13]: < 10 nM | TGI [13]: < 10 nM | GI50 [14]: < 10 nM | TGI [14]: < 10 nM | GI50 [15]: < 10 nM | TGI [15]: < 10 nM | GI50 [16]: < 10 nM | TGI [16]: < 10 nM | GI50 [17]: < 10 nM | TGI [17]: < 10 nM | GI50 [18]: < 10 nM | TGI [18]: < 10 nM | GI50 [19]: < 10 nM | TGI [19]: 91.6 nM | GI50 [20]: < 10 nM | TGI [20]: < 10 nM | GI50 [21]: < 10 nM | TGI [21]: 12700 nM | GI50 [22]: < 10 nM | TGI [22]: < 10 nM | GI50 [23]: < 10 nM | TGI [23]: < 10 nM | GI50 [24]: < 10 nM | TGI [24]: < 10 nM | GI50 [25]: < 10 nM | TGI [25]: 121 nM | GI50 [26]: < 10 nM | TGI [26]: 11.2 nM | GI50 [27]: < 10 nM | TGI [27]: 24300 nM | GI50 [28]: < 10 nM | TGI [28]: 24400 nM | GI50 [29]: < 10 nM | TGI [29]: < 10 nM | GI50 [30]: < 10 nM | TGI [30]: > 100000 nM | GI50 [31]: < 10 nM | TGI [31]: > 100000 nM | GI50 [32]: < 10 nM | TGI [32]: < 10 nM | GI50 [33]: < 10 nM | TGI [33]: < 10 nM | GI50 [34]: < 10 nM | TGI [34]: < 10 nM | GI50 [35]: < 10 nM | TGI [35]: > 100000 nM | GI50 [36]: < 10 nM | TGI [36]: < 10 nM | GI50 [37]: < 10 nM | TGI [37]: < 10 nM | GI50 [38]: < 10 nM | TGI [38]: < 10 nM | GI50 [39]: < 10 nM | TGI [39]: < 10 nM | GI50 [40]: < 10 nM | TGI [40]: > 100000 nM | GI50 [41]: < 10 nM | TGI [41]: > 100000 nM | GI50 [42]: < 10 nM | TGI [42]: < 10 nM | GI50 [43]: < 10 nM | TGI [43]: < 10 nM | GI50 [44]: < 10 nM | TGI [44]: < 10 nM | GI50 [45]: < 10 nM | TGI [45]: 30.4 nM | GI50 [46]: < 10 nM | TGI [46]: < 10 nM | GI50 [47]: 105 nM | TGI [47]: 266 nM | GI50 [48]: < 10 nM | TGI [48]: > 100000 nM | GI50 [49]: < 10 nM | TGI [49]: > 100000 nM | GI50 [50]: < 10 nM | TGI [50]: < 10 nM | GI50 [51]: < 10 nM | TGI [51]: < 10 nM | GI50 [52]: < 10 nM | TGI [52]: < 10 nM | GI50 [53]: < 10 nM | TGI [53]: < 10 nM | GI50 [54]: < 10 nM | TGI [54]: < 10 nM | GI50 [55]: < 10 nM | TGI [55]: < 10 nM
